In brackets after ≈: the same amount, converted by molar mass. Like-named read-outs stand apart in the source and are kept apart here. Residues, ends and D or L forms follow the SMILES beside them.
How the values were obtained:
S. aureus USA300 [1] = type: cell-based, Staphylococcus aureus; details: for loss in activity compared to the WT: MRSA USA300
Procedure: (§1) The antimicrobial activity of peptides was evaluated using a standard broth microdilution protocol. In brief, exponential phase bacteria at 10^6 CFU were incubated with serially diluted peptides overnight for ˜20 hours at 37° C. The plates were read on a ChroMate® 4300 Microplate Reader at 630 nm (GMI, Ramsey, Minn.).

E. coli ATCC 25922 = type: cell-based, Escherichia coli; details: ATCC 25922, 20 h
Procedure: as §1

human red blood cells = assay: Hemolytic ability (Example 3); type: cell-based; details: concentration that causes 50% hemolysis
Procedure: Hemolytic analysis of selected peptides was performed using an established protocol. Briefly, human blood cells (UNMC Blood Bank) were washed three times with phosphate buffer saline (PBS) and diluted to a 2% solution. After peptide treatment, incubation at 37° C. for one hour, and centrifugation at 13,000 rpm, aliquots of the supernatant were transferred to a fresh 96-well microplate. To assess peptide cytotoxicity, the amount of hemoglobin released was measured at 545 nm. The percent lysis was calculated by assuming 100% release when human blood cells were treated with 1% TRITON™ X-100, and 0% release when incubated with PBS buffer.

S. aureus USA300 [2] = type: cell-based, Staphylococcus aureus
Procedure: Two types of experiments were conducted to evaluate the anti-biofilm activity of these peptides against S. aureus USA300 grown under a static condition for 24 hours to form established biofilms in presence of tryptic soy broth (TSB). The experiment was set up using a flat bottom, 96-well, polystyrene microtiter plates (Corning, COSTAR). In short, S. aureus USA300 (10^5 CFU/mL) in fresh TSB media was made from an exponentially growing culture. 200 μL of this bacterial culture was added to each well of the microtiter plates. The plates are then incubated at 37° C. for 24 hours to allow biofilm formation. Media was then carefully removed followed by washing with sterile 1×PBS to remove any unattached bacteria. Solution containing μL of 10× peptide solution and 180 μL of fresh TSB were added. The plates were again incubated at 37° C. for another 24 hours. To measure the extent of biofilm disruption by the peptides as a function of biofilm reduction, crystal violet staining was performed. Media was pipetted out and the wells were carefully washed with 200 μL of PBS to remove the loosely attached cells. Subsequently, 200 μL of 99% methanol was added for fixation and the plates were allowed to sit for 15 minutes. The plates were finally aspirated and dried. Lastly, staining was done with 200 μL of 1% crystal violet in water for 5 minutes. Excess stain was gently rinsed off with tap water, and plates were air-dried. Further, stains were solubilized in 200 μL of 33% glacial acetic acid followed by colorimetric measurement at 600 nm on a Chromate® microtiter plate reader. The amounts of biofilm growth with and without compound treatments were calculated.
In addition, live cell contents of the peptide acted biofilms was estimated by XTT [2,3-bis(2-methyloxy-4-nitro-5-sulfophenyl)-2H-tertazolium-5-carboxanilide]assay by following the manufacturer's instructions with modifications. A 10% XTT solution in TSB media was added to each well and the plates were again incubated for 2 hours at 37° C. Absorbance at 450 nm (only media with XTT containing wells served as the blank) was obtained using Chromate® microtiter plate reader. Percentage of biofilm reduction for the peptide was plotted assuming 100% biofilm growth is achieved on the bacterial wells without peptide treatment.

E. coli K12 = type: cell-based, Escherichia coli; details: K12
Procedure: (§2) The bacterial strains used here included Gram-positive bacteria Staphylococcus aureus USA300 LAC, Staphylococcus epidermidis 1457, Bacillus subtilis 168, and Gram-negative Escherichia coli K12. Clinical strains of S. aureus, including Mu50, UAMS-1 and Newman, were also evaluated.
(§3) The antimicrobial activity of peptides was evaluated using a standard broth microdilution protocol (Wang, G. (2008) J. Biol. Chem., 283:32637-32643). In brief, exponential phase bacteria at 10^6 CFU were incubated with serially diluted peptides overnight for ˜20 hours at 37° C. The plates were read on a ChroMate® 4300 Microplate Reader at 630 nm (GMI, Ramsey, Minn.). […] In addition, the effects of human serum (up to 10%), pH (6.8, 7.4 and 8.0) and 150 mM sodium chloride (NaCl) on MICs against S. aureus USA300 were also evaluated (Mishra et al. (2015) RSC Advances 5:59758-59769).

S. epidermidis 1457 = type: cell-based, Staphylococcus epidermidis
Procedure: as §2, §3

B. subtilis 168 = type: cell-based, Bacillus subtilis
Procedure: as §2, §3

S. aureus USA300 [3] = type: cell-based, Staphylococcus aureus; remark: listed apart in the source
Procedure: as §2, §3

S. aureus USA300 [4] = type: cell-based, Staphylococcus aureus; details: USA300
Procedure: The minimal bactericidal concentration (MBC) was determined by plating 50 μl of the content in the clear wells of the above MIC assays. MBC was determined on the petri dishes without bacterial colony formation after overnight growth (Wang et al. (2012) Biochemistry 51:653-664).

S. aureus USA300 [5] = assay: Propidium iodide membrane permeation; type: cell-based, Staphylococcus aureus
Procedure: Fluorescence spectroscopy was also used to follow bacterial killing. In brief, a serially diluted 10× peptide (10 μL) was made in 96-well coming COSTAR microtiter plates. Propidium iodide (2 μL) was added at 50 μM to each well which was finally incubated with S. aureus USA300 bacteria (88 μL at a final OD600 ˜0.1) with continuous shaking at 100 rpm, 37° C. in a FLUOstar® Omega (BMG LABTECH Inc, NC) microplate reader. The plates were read every 5 minutes for a total duration of 2 hours with excitation and emission wavelengths at 584 nm and 620 nm respectively. Plots were made using averaged readings from duplicated experiments after subtraction of the media control.

`CC[C@H](C)[C@H](NC(=O)[C@H](CCCNC(=N)N)NC(=O)[C@H](CCCNC(=N)N)NC(=O)[C@H](CC(C)C)NC(=O)[C@H](Cc1c[nH]c2ccccc12)NC(=O)[C@H](Cc1c[nH]c2ccccc12)NC(=O)[C@@H](N)CCCNC(=N)N)C(=O)N[C@@H](Cc1c[nH]c2ccccc12)C(N)=O` [Peptide W1R, RWWLRRIW] (H-RWWLRRIW-NH2; N-terminus assumed) was tested, and the “loss in activity compared to the WT” value (S. aureus USA300 [1]) was “four-fold”, the “S. aureus (MIC)” value (S. aureus USA300 [1]; S. aureus USA300) was 12.5 µM and the “E. coli (MIC)” value (E. coli ATCC 25922) was 25 µM. For the same compound, the HL50 (human red blood cells) was >200 µM and the “killing in preformed biofilms (XTT)” value (S. aureus USA300 [2]; 25 μM) was “neither W1R nor W3R was able to kill”.

With `CC[C@H](C)[C@H](NC(=O)[C@H](CCCNC(=N)N)NC(=O)[C@H](CCCNC(=N)N)NC(=O)[C@H](CC(C)C)NC(=O)[C@H](Cc1c[nH]c2ccccc12)NC(=O)[C@H](CCCNC(=N)N)NC(=O)[C@@H](N)Cc1c[nH]c2ccccc12)C(=O)N[C@@H](Cc1c[nH]c2ccccc12)C(N)=O` [Peptide W2R, WRWLRRIW] (H-WRWLRRIW-NH2; N-terminus assumed) the “S. aureus (MIC)” value (S. aureus USA300 [1]; USA300, 20 h) was 6.2 µM, the “E. coli (MIC)” value (E. coli ATCC 25922) was 25 µM and the HL50 (human red blood cells) was 100 µM. For the same compound, the “killing in preformed biofilms (XTT)” value (S. aureus USA300 [2]; 12.5 μM) was 80%.

For `CC[C@H](C)[C@H](NC(=O)[C@H](CCCNC(=N)N)NC(=O)[C@H](CCCNC(=N)N)NC(=O)[C@H](CC(C)C)NC(=O)[C@H](CCCNC(=N)N)NC(=O)[C@H](Cc1c[nH]c2ccccc12)NC(=O)[C@@H](N)Cc1c[nH]c2ccccc12)C(=O)N[C@@H](Cc1c[nH]c2ccccc12)C(N)=O` [Peptide W3R, WWRLRRIW] (H-WWRLRRIW-NH2; N-terminus assumed), the “loss in activity compared to the WT” value (S. aureus USA300 [1]) was “four-fold”, the “S. aureus (MIC)” value (S. aureus USA300 [1]; S. aureus USA300) was 12.5 µM and the “E. coli (MIC)” value (E. coli ATCC 25922) was 25 µM. For the same compound, the HL50 (human red blood cells) was >200 µM and the “killing in preformed biofilms (XTT)” value (S. aureus USA300 [2]; 25 μM) was “neither W1R nor W3R was able to kill”.

For `CC[C@H](C)[C@H](NC(=O)[C@H](CCCNC(=N)N)NC(=O)[C@H](CCCNC(=N)N)NC(=O)[C@H](CC(C)C)NC(=O)[C@H](Cc1c[nH]c2ccccc12)NC(=O)[C@H](Cc1c[nH]c2ccccc12)NC(=O)[C@@H](N)Cc1c[nH]c2ccccc12)C(=O)N[C@@H](CCCNC(=N)N)C(N)=O` [Peptide W8R, WWWLRRIR] (H-WWWLRRIR-NH2; N-terminus assumed), the “loss in activity compared to the WT” value (S. aureus USA300 [1]) was “four-fold”, the “S. aureus (MIC)” value (S. aureus USA300 [1]; S. aureus USA300) was 12.5 µM and the “E. coli (MIC)” value (E. coli ATCC 25922) was 25 µM. The HL50 (human red blood cells) was >200 µM and the “killing in preformed biofilms (XTT)” value (S. aureus USA300 [2]; 12.5 μM) was 20%.

With `CC[C@H](C)[C@H](NC(=O)[C@H](CCCNC(=N)N)NC(=O)[C@H](CO)NC(=O)[C@H](CC(C)C)NC(=O)[C@H](Cc1c[nH]c2ccccc12)NC(=O)[C@H](Cc1c[nH]c2ccccc12)NC(=O)[C@@H](N)Cc1c[nH]c2ccccc12)C(=O)N[C@@H](Cc1c[nH]c2ccccc12)C(N)=O` [TetraF2W, WWWLSRIW] (H-WWWLSRIW-NH2; N-terminus and C-terminus assumed) the “MIC E. coli K12” value (E. coli K12) was >100 µM, the “MIC S. epidermidis 1457” value (S. epidermidis 1457) was >50 µM and the “MIC B. subtilis 168” value (B. subtilis 168) was 6.2 µM (≈ 7.64 µg/mL). For the same compound, the “fold more potent than temporin-SHf (anti-MRSA)” value (S. aureus USA300 [3]; S. aureus USA300) was 4-8 fold, the “MIC S. aureus USA300” value (S. aureus USA300 [3]; USA300) was 3.1 to 6.2 µM and the “MBC S. aureus USA300” value (S. aureus USA300 [4]) was 6.2 µM (≈ 7.64 µg/mL).

`CCCCCCCCCC(=O)N[C@@H](Cc1c[nH]c2ccccc12)C(=O)N[C@H](CC(N)=O)C(=O)N[C@@H](CC(=O)O)C(=O)N[C@@H]1C(=O)NCC(=O)N[C@@H](CCCN)C(=O)N[C@@H](CC(=O)O)C(=O)N[C@H](C)C(=O)N[C@@H](CC(=O)O)C(=O)NCC(=O)N[C@H](CO)C(=O)N[C@@H]([C@H](C)CC(=O)O)C(=O)N[C@@H](CC(=O)c2ccccc2N)C(=O)O[C@@H]1C` [daptomycin, reference compound] was tested, and the “propidium iodide fluorescence change after treatment” value (S. aureus USA300 [5]) was “rapid increase in fluorescence”.

`CN[C@H](CC(C)C)C(=O)N[C@H]1C(=O)N[C@@H](CC(N)=O)C(=O)N[C@H]2C(=O)N[C@H]3C(=O)N[C@H](C(=O)N[C@H](C(=O)O)c4cc(O)cc(O)c4-c4cc3ccc4O)[C@H](O)c3ccc(c(Cl)c3)Oc3cc2cc(c3O[C@@H]2O[C@H](CO)[C@@H](O)[C@H](O)[C@H]2O[C@H]2C[C@](C)(N)[C@H](O)[C@H](C)O2)Oc2ccc(cc2Cl)[C@H]1O` [vancomycin, reference compound] was tested, and the “propidium iodide fluorescence change after treatment” value (S. aureus USA300 [5]) was “no increase in fluorescence”.

Source: patent US20190048052A1, “ANTI-MICROBIAL PEPTIDES AND COATINGS” (Board of Regents of the University of Nebraska, priority 2016, published 2019)
